Test system: Arabidopsis thaliana seedlings
Experiment: Test of the herbicidal activity on Arabidopsis thaliana seedlings grown hydroponically at the cotyledon stage
Type: in vivo
Parameters: key: A for Active in the case where the plant is killed, that is to say when the two cotyledons have lost all of their green coloration; “N” for Not active, in the case where no biological activity is observed
Conditions: for Activity after 24 h: 24 h after application; for Activity after 96 h: 96 h after application
Method: The compounds were tested on Arabidopsis thaliana seedlings grown hydroponically at the cotyledon stage. Sterile seeds are germinated in the light in a culture plate, in the presence of 200 μL of nutrient medium. After five days of culture (time 0 of the trial), the nutrient medium is replaced with an equivalent volume (200 μL) of this same medium containing the compound to be tested at different concentrations. The manifestation of herbicidal activity is indicated by A for Active in the case where the plant is killed, that is to say when the two cotyledons have lost all of their green coloration, 24 h and 96 h after application of the product. The absence of herbicidal activity is indicated by “N” for Not active, in the case where no biological activity is observed.

SMILES	Activity after 24 h (10 μg/mL in nutrient medium)	Activity after 96 h (10 μg/mL in nutrient medium)	Activity after 24 h (50 μg/mL in nutrient medium)	Activity after 96 h (50 μg/mL in nutrient medium)	Activity after 24 h (100 μg/mL in nutrient medium)	Activity after 96 h (100 μg/mL in nutrient medium)
Oc1cccc2c1CC=CCO2 [Compound E, reference compound]	N	N	N	N	N	N
CC1=CCc2c(O)cc(CCc3ccccc3)cc2OC1 [Compound A]	N	N	A	A	A	A
CC1=CCOc2cc(CCc3ccccc3)c(C(=O)O)c(O)c2C1 [Compound C]	A	A	A	A	A	A
CC1=CCc2c(cc(CCc3ccccc3)c(C(=O)O)c2O)OC1 [Compound H]	A	A	A	A	A	A
COC(=O)c1c(CCc2ccccc2)cc2c(c1O)CC=C(C)CO2 [Compound D]	N	N	N	A	N	A

— patent US12193443B2, “Use of benzoxepin derivatives as a herbicide” (ECOLE POLYTECHNIQUE, priority 2019, dated 2025)
